According to US4162326A, “Insect control agents” (Stauffer Chemical Company, priority 1978, dated 1979):

Tested on: milkweed bug, Oncopeltus fasciatus (Dallas)
Assay: anti-juvenile hormone activity and insecticidal activity against the milkweed bug (treated filter paper, second-instar nymphs)
Format: in vivo
Conditions: for LD50 (ED50 or LD50; compounds without asterisk, functioned as insecticides): insecticidal activity, mortality to at least 50% of the insects; for LD50 (ED50 or LD50; compounds without asterisk, functioned as insecticides) / ED50 (ED50 or LD50; compounds marked with asterisk, functioned as anti-juvenile hormone): second-instar nymphs, treated filter paper, 70° F, 3 to 4 weeks; for type of action (anti-juvenile hormone or general insecticide): statement in words on Table II; for ED50 (ED50 or LD50; compounds marked with asterisk, functioned as anti-juvenile hormone): anti-juvenile hormone activity (asterisk)
Method: Compounds were tested for anti-juvenile hormone activity and insecticidal activity against the milkweed bug, Oncopeltus fasciatus (Dallas) as follows: The test compounds were diluted in acetone and impregnated into a filter paper disc by applying 0.6 milliliters and permitting the solvent to completely evaporate. Ten second-instar nymphs of Oncopeltus fasciatus (Dallas) were placed in a petri dish with the treated filter paper. The nymphs were supplied with milkweed seeds and water (by soaking dental cotton in a 4-dram vial cap). All petri dishes were stored at 70° F. The compounds were tested at concentrations ranging from 10 μg/cm^2 of filter paper downwards. The insecticidal or anti-juvenile hormone effect was determined when control insects had developed into normal adults, normally 3 to 4 weeks. The asterisk in the Table signifies that the indicated compound functioned as an anti-juvenilehormone. Compounds not marked with an asterisk functioned as insecticides,resulting in mortality to at least 50% of the insects at the indicated level.

Compound	LD50 (ED50 or LD50; compounds without asterisk, functioned as insecticides) [ug/cm^2]	type of action (anti-juvenile hormone or general insecticide)	ED50 (ED50 or LD50; compounds marked with asterisk, functioned as anti-juvenile hormone) [ug/cm^2]
C#CCOc1ccc2c(c1)OC(C)(C)C=C2 [Compound 1]	2	function as general insecticides	
C=CCOc1ccc2c(c1)OC(C)(C)C=C2 [Compound 3, 2,2-dimethyl-7-allyloxy-3-chromene]		function as anti-juvenile hormones	2
C=CCOc1cc2c(cc1OC)C=CC(C)(C)O2 [Compound 7]		function as anti-juvenile hormones	0.5
C=CCOc1cc2c(cc1OC)OC(C)(C)C=C2 [Compound 5]	8	function as general insecticides	
C#CCOc1cc2c(cc1OC)C=CC(C)(C)O2 [Compound 6]		function as anti-juvenile hormones	1
CC#CCOc1ccc2c(c1)OC(C)(C)C=C2 [Compound 2]		function as anti-juvenile hormones	0.5
C#CCOc1cc2c(cc1OC)OC(C)(C)C=C2 [Compound 4]	6	function as general insecticides	
